# Measurements reported in patent publication US20110014174A1, “Lysozyme, A Novel Vasodilator of Sepsis that can be inhibited by a Peroxidase and Hydroxyl Radical Scavengers” (UNIVERSITY OF MANITOBA, priority 2007, published 2011).
# “Also recorded” adds a separate entry of the source. Read-outs that look alike come from different tables or passages of the source.
# Experiments:
# [1] = system: Lzm-S-induced carotid artery vasodilation; test: Prevention of Lzm-S-induced vasodilation by pretreatment agents in the carotid artery ring preparation; set-up: species or system canine; conditions: for contraction after Lzm-S, % of the butanol-plateau: n-butanol pretreated; for contraction after Lzm-S relative to the post-indomethacin plateau: indomethacin 10^−6 mol/L treated group (n=5); for blockade of Lzm-S-induced vasodilation: comparison of hydroxyl radical scavengers with peroxidase
# [2] = system: phenylephrine contracted canine carotid artery ring preparation; test: Contraction force and vasorelaxation in phenylephrine contracted canine carotid artery ring preparation; conditions: for contraction after Lzm-S relative to the value pre-Lzm-S treatment: non-L-NMMA treated group (n=12), human Lzm-S 6.7×10^−7 mol/L; for contraction after Lzm-S relative to the pre-Lzm-S contraction: non-indomethacin treated group (n=4)
# [3] = pretreatment with the agent, human Lzm-S 6.7×10^−7 mol/L, phenylephrine contracted ring
molecule,measurement,setting,value
CC(C)NCC(O)COc1cccc2ccccc12 (stereo not shown) [propranolol],inhibition of Lzm-S-induced vasodilation (words),[1]; [3],none of these inhibitors prevented Lzm-S's vasodilatory response
Nc1ccncc1 [4-aminopyridine],inhibition of Lzm-S-induced vasodilation (words),[1]; [3],none of these inhibitors prevented Lzm-S's vasodilatory response
"guanosine 3′,5′-cyclic monophosphorothioate, β-phenyl-1,N^2-etheno-8-bromo-Rp-isomer, sodium salt [PKG inhibitor]",inhibition of Lzm-S-induced vasodilation (words),"[1]; pretreatment with the agent, human Lzm-S 6.7×10^−7 mol/L, phenylephrine contracted ring, listed as protein kinase G inhibitor, sodium salt",prevented lysozyme induced vasdodilation
same,inhibition of Lzm-S-induced vasodilation (words),"[1]; pretreatment with the agent, human Lzm-S 6.7×10^−7 mol/L, phenylephrine contracted ring, sodium salt",found to inhibit Lzm-S's effect
CC[N+](CC)(CC)CC [tetraethylammonium],inhibition of Lzm-S-induced vasodilation (words),[1],none of these inhibitors prevented Lzm-S's vasodilatory response
"O=C1C(Nc2ccccc2)=CC(=O)c2ncccc21 [LY 83583, 6-anilino-5,8-quinolinequinone]",inhibition of Lzm-S-induced vasodilation (words),[1]; [3],prevented lysozyme induced vasdodilation; also recorded: found to inhibit Lzm-S's effect
"N[C@@H](CCC(=O)N[C@@H](CS)C(=O)NCC(=O)O)C(=O)O [reduced-glutathione, reduced glutathione]",inhibition of Lzm-S-induced vasodilation (words),[1]; [3],"neither DECTA (10^−2 mol/L), deferoxamine methanesulfonate salt (10^−2 mol/L), nor the reducing agents N-acetylcysteine (10^−3 mol/L), ascorbic acid (10^−4 mol/L), and reduced-glutathione (10^−3 mol/L) were found to inhibit Lzm-S-induced vasodilation"
deferoxamine methanesulfonate salt,inhibition of Lzm-S-induced vasodilation (words),[1]; [3],"neither DECTA (10^−2 mol/L), deferoxamine methanesulfonate salt (10^−2 mol/L), nor the reducing agents N-acetylcysteine (10^−3 mol/L), ascorbic acid (10^−4 mol/L), and reduced-glutathione (10^−3 mol/L) were found to inhibit Lzm-S-induced vasodilation"
CN(C)CCOC(c1ccccc1)c1ccccc1.Cl [dipheniramine hydrochloride],inhibition of Lzm-S-induced vasodilation (words),[1]; [3],none of these inhibitors prevented Lzm-S's vasodilatory response
CCCCO [n-butanol],"contraction after Lzm-S, % of the butanol-plateau",[1]; 5 minutes,84±9%
same,"contraction after Lzm-S, % of the butanol-plateau",[1]; 15 minutes,62±21%
same,"contraction after Lzm-S, % of the butanol-plateau",[1]; 30 minutes,23±27%
same,inhibition of Lzm-S-induced vasodilation (words),[1]; [3],no inhibitory effect
same,"force after the alcohol was added, % of the phenylephrine-plateau response","[2]; n-butanol (10^−7 mol/L), before Lzm-S",61±17%
COc1ccc2c(c1)c(CC(=O)O)c(C)n2C(=O)c1ccc(Cl)cc1 [indomethacin],contraction after Lzm-S relative to the post-indomethacin plateau,[1]; 5 minutes,79±11%
same,contraction after Lzm-S relative to the post-indomethacin plateau,[1]; 15 minutes,57±24%
same,contraction after Lzm-S relative to the post-indomethacin plateau,[1]; 30 minutes,39±25%
same,inhibition of Lzm-S-induced vasodilation (words),[1]; [3],did not Prevent Vasodilation
same,force over 30 minutes when indomethacin was added,"[2]; indomethacin 10^−6 mol/L after phenylephrine, before Lzm-S",5.6±0.5 grams
"OO [H2O2, hydrogen peroxide]",effect of H2O2 on force,[2]; 10^−4 mol/L,progressive vasorelaxation over time
same,effect of H2O2 on precontracted force,[2]; 10^−5 mol/L,minimal effect
same,effect of H2O2 on force,"[2]; higher concentrations, 10^−3 to 10^−1 mol/L",an initial increase in force that was followed by vasorelaxation; also recorded: vasoconstriction that was rapidly followed by vasodilation
same,effect of H2O2 on force,"[2]; lower concentrations, FIG. 8",vasorelaxation was produced
"CCN(CC)C(=S)S [DECTA, diethyldithiocarbamic acid]",inhibition of Lzm-S-induced vasodilation (words),[1]; [3],"neither DECTA (10^−2 mol/L), deferoxamine methanesulfonate salt (10^−2 mol/L), nor the reducing agents N-acetylcysteine (10^−3 mol/L), ascorbic acid (10^−4 mol/L), and reduced-glutathione (10^−3 mol/L) were found to inhibit Lzm-S-induced vasodilation"
OC[C@@H](O)[C@@H](O)[C@H](O)[C@H](O)CO [mannitol],blockade of Lzm-S-induced vasodilation,[1],60%
same,inhibition of Lzm-S-induced vasodilation (words),[1]; [3],inhibited the vasodilatory effect of lysozyme; also recorded: inhibitory effect
CC(=O)N[C@@H](CS)C(=O)O [N-acetylcysteine],inhibition of Lzm-S-induced vasodilation (words),[1]; [3],"neither DECTA (10^−2 mol/L), deferoxamine methanesulfonate salt (10^−2 mol/L), nor the reducing agents N-acetylcysteine (10^−3 mol/L), ascorbic acid (10^−4 mol/L), and reduced-glutathione (10^−3 mol/L) were found to inhibit Lzm-S-induced vasodilation"
O=C(O)CCC/C=C\C/C=C\C/C=C\C/C=C\CCCCCO [20-hydroxyeicosatetraenoic acid],inhibition of Lzm-S-induced vasodilation (words),[1]; [3],none of these inhibitors prevented Lzm-S's vasodilatory response
Oc1ccc(O)cc1 [hydroquinone],blockade of Lzm-S-induced vasodilation,[1],60%
same,inhibition of Lzm-S-induced vasodilation (words),[1]; [3],inhibited the vasodilatory effect of lysozyme
same,inhibition of Lzm-S-induced vasodilation (words),"[1]; pretreatment with the agent, human Lzm-S 6.7×10^−7 mol/L, phenylephrine contracted ring, listed as hydroxyquinone",inhibitory effect
"CC(=O)N[C@H]1[C@H](O[C@H]2[C@H](O)[C@@H](NC(C)=O)C(O)O[C@@H]2CO)O[C@H](CO)[C@@H](O)[C@@H]1O (stereo partly shown) [chitobiose, N,N′-diacetylchitobiose]",inhibition of Lzm-S-induced vasodilation (words),[1]; [3],did not block Lzm-S's vasodilatory response
"iberiotoxin: used for inhibition of potassium channels (QFTDVDCSVSKECWSVCKDLFGVDRGKCMGKKCRCYQ; Iberiotoxin; UniProt P24663 1-37, looked up)",inhibition of Lzm-S-induced vasodilation (words),[1]; [3],none of these inhibitors prevented Lzm-S's vasodilatory response
"CC(=O)N[C@H]1[C@H](O[C@H]2[C@H](O)[C@@H](NC(C)=O)C(O)O[C@@H]2CO)O[C@H](CO)[C@@H](O[C@@H]2O[C@H](CO)[C@@H](O)[C@H](O)[C@H]2NC(C)=O)[C@@H]1O (stereo partly shown) [chitotriose, N,N′,N″-triacetylchitotriose]",inhibition of Lzm-S-induced vasodilation (words),[1]; [3],did not block Lzm-S's vasodilatory response
charybdotoxin,inhibition of Lzm-S-induced vasodilation (words),[1]; [3],none of these inhibitors prevented Lzm-S's vasodilatory response
"O=c1onc2cnc3ccccc3n12 [ODQ, 1H-[1,2,4]oxadiazolo[4,3-a]quinoxalin-1-one]",inhibition of Lzm-S-induced vasodilation (words),[1]; [3],prevented lysozyme induced vasdodilation; also recorded: found to inhibit Lzm-S's effect
[Cl-].[K+] [KCl],inhibition of Lzm-S-induced vasodilation (words),[1]; [3],none of these inhibitors prevented Lzm-S's vasodilatory response
CN(C)c1ccc2nc3ccc(=[N+](C)C)cc-3sc2c1 [methylene blue],inhibition of Lzm-S-induced vasodilation (words),[1]; [3],inhibited the effect of lysozyme; also recorded: prevented lysozyme induced vasdodilation; also recorded: found to inhibit Lzm-S's effect
CN1[C@@H]2CC[C@H]1C[C@@H](OC(=O)C(CO)c1ccccc1)C2 (stereo partly shown) [atropine],inhibition of Lzm-S-induced vasodilation (words),[1]; [3],none of these inhibitors prevented Lzm-S's vasodilatory response
"Nc1ncnc2c1ncn2C1CCCO1 (stereo not shown) [SQ 22, 536]",inhibition of Lzm-S-induced vasodilation (words),[1]; [3],none of these inhibitors prevented Lzm-S's vasodilatory response
CNC[C@H](O)c1cccc(O)c1 [phenylephrine],phenylephrine response,[2]; endothelial denuded preparation,7.1±0.5 grams
same,phenylephrine response,[2]; endothelial intact preparation,6.7±0.7 grams
same,phenylephrine contraction alone,"[2]; ethanol treated control group, baseline before ethanol",8.2±2.6 grams
same,mean increase in contraction from resting force with phenylephrine,[2]; indomethacin treated group,7.5±1.4 grams
same,mean increase in force from resting tension with phenylephrine,[2]; non-indomethacin time control group,6.9±2.7 grams
same,mean increase in resting force caused by phenylephrine,"[2]; phenylephrine 10^−5 mol/L, L-NMMA treated group",6.2±2.4 grams
same,mean increase in contraction from resting force caused by phenylephrine,"[2]; phenylephrine 10^−5 mol/L, non-L-NMMA treated group",7.1±2.1 grams
O=C1O[C@H]([C@@H](O)CO)C(O)=C1O [ascorbic acid],inhibition of Lzm-S-induced vasodilation (words),[1]; [3],"neither DECTA (10^−2 mol/L), deferoxamine methanesulfonate salt (10^−2 mol/L), nor the reducing agents N-acetylcysteine (10^−3 mol/L), ascorbic acid (10^−4 mol/L), and reduced-glutathione (10^−3 mol/L) were found to inhibit Lzm-S-induced vasodilation"
"human Lzm-S: Human lysozyme purchased from EMD Biosciences; used in all experiments after the initial ones (protein, UniProt P61626 19-148, looked up) Lysozyme C: KVFERCELARTLKRLGMDGYRGISLANWMCLAKWESGYNTRATNYNAGDRSTDYGIFQINSRYWCNDGKTPGAVNACHLSCSALLQDNIADAVACAKRVVRDPQGIRAWVAWRNRCQNRDVRQYVQGCGV",vasorelaxation in the carotid artery preparation (mean values),[2]; FIG. 2 mean values,significant vasorelaxation
same,"contraction after Lzm-S, % of the phenylephrine plateau","[2]; endothelium denuded preparation (n=4), 5 minutes",79±18%
same,"contraction after Lzm-S, % of the phenylephrine plateau","[2]; endothelium denuded preparation (n=4), 15 minutes",58±21%
same,"contraction after Lzm-S, % of the phenylephrine plateau","[2]; endothelium denuded preparation (n=4), 30 minutes",54±20%
same,"contraction after Lzm-S, % of the phenylephrine plateau","[2]; endothelium intact preparation (n=4), 5 minutes",64±25%
same,"contraction after Lzm-S, % of the phenylephrine plateau","[2]; endothelium intact preparation (n=4), 15 minutes",53±33%
same,"contraction after Lzm-S, % of the phenylephrine plateau","[2]; endothelium intact preparation (n=4), 30 minutes",76±21%
same,constriction after lysozyme relative to the phenylephrine value,"[2]; example traces FIG. 1, phenylephrine constricted carotid ring",about 40%
same,vasodilatory effect,[2]; human Lzm-S 3.3×10^−7 mol/L,minimal vasodilatory effect
same,reduction in contraction,[2]; human Lzm-S higher concentration (6.7×10^−7 mol/L),nearly eliminated the increase in force induced by phenylephrine
same,contraction after Lzm-S relative to the value pre-Lzm-S treatment,[2]; 5 minutes,23±24%
same,contraction after Lzm-S relative to the value pre-Lzm-S treatment,[2]; 15 minutes,8±27%
same,contraction after Lzm-S relative to the value pre-Lzm-S treatment,[2]; 30 minutes,2±34%
same,contraction after Lzm-S relative to the pre-Lzm-S contraction,[2]; 5 minutes,71±16%
same,contraction after Lzm-S relative to the pre-Lzm-S contraction,[2]; 15 minutes,45±19%
same,contraction after Lzm-S relative to the pre-Lzm-S contraction,[2]; 30 minutes,19±15%
